Measured values as given in patent publication EP1025114B1, “3'-N-MODIFIED 6-O-SUBSTITUTED ERYTHROMYCIN KETOLIDE DERIVATIVES HAVING ANTIBACTERIAL ACTIVITY” (priority 1997, dated 1999).
Converted amounts (≈) assume the structure as drawn.

Assays:
Assay in all cases: In vitro antibacterial activity, agar dilution MIC
Format in all cases: cell-based
Candida albicans CCH 442 = Candida albicans CCH 442 (organism code TT); BHI agar, 35-37 °C, 20 to 24 hours; unit assumed
Description: (§1) Representative compounds of the present invention were assayed in vitro for antibacterial activity as follows: Twelve petri dishes containing successive aqueous dilutions of the test compound mixed with 10 mL of sterilized Brain Heart infusion (BHI) agar (Difco 0418-01-5) were prepared. Each plate was inoculated with 1:100 (or 1:10 for slow-growing strains, such as Micrococcus and Streptococcus) dilutions of up to 32 different microorganisms, using a Steers replicator block. […] In addition, a control plate, using BHI agar containing no test compound, was prepared and incubated at the beginning and end of each test.
(§2) An additional plate containing a compound having known susceptibility patterns for the organisms being tested and belonging to the same antibiotic class as the test compound was also prepared and incubated as a further control, as well as to provide test-to-test comparability.
(§3) After incubation, each plate was visually inspected. The minimum inhibitory concentration (MIC) was defined as the lowest concentration of drug yielding no growth, a slight haze, or sparsely isolated colonies on the inoculum spot as compared to the growth control.

[1] = tested on: Enterococcus faecium ATCC 8043; conditions: Enterococcus faecium ATCC 8043 (organism code II); BHI agar, 35-37 °C, 20 to 24 hours; unit assumed
Description: as §1, §2, §3

Escherichia coli DC-2 = Escherichia coli DC-2 (organism code SS); BHI agar, 35-37 °C, 20 to 24 hours; unit assumed
Description: as §1, §2, §3

Escherichia coli JUHL = Escherichia coli JUHL (organism code QQ); BHI agar, 35-37 °C, 20 to 24 hours; unit assumed
Description: as §1, §2, §3

Escherichia coli SS = Escherichia coli SS (organism code RR); BHI agar, 35-37 °C, 20 to 24 hours; unit assumed
Description: as §1, §2, §3

[2] = tested on: Haemophilis Influenzae DILL AMP R; conditions: Haemophilis Influenzae DILL AMP R (organism code WW); BHI agar, 35-37 °C, 20 to 24 hours; unit assumed
Description: as §1, §2, §3

[3] = tested on: Micrococcus luteus ATCC 4698; conditions: Micrococcus luteus ATCC 4698 (organism code PP); BHI agar, 35-37 °C, 20 to 24 hours; unit assumed
Description: as §1, §2, §3

[4] = tested on: Micrococcus luteus ATCC 9341; conditions: Micrococcus luteus ATCC 9341 (organism code OO); BHI agar, 35-37 °C, 20 to 24 hours; unit assumed
Description: as §1, §2, §3

[5] = tested on: Mycobacterium smegmatis ATCC 114; conditions: Mycobacterium smegmatis ATCC 114 (organism code UU); BHI agar, 35-37 °C, 20 to 24 hours; unit assumed
Description: as §1, §2, §3

[6] = tested on: Nocardia Asteroides ATCC9970; conditions: Nocardia Asteroides ATCC9970 (organism code VV); BHI agar, 35-37 °C, 20 to 24 hours; unit assumed
Description: as §1, §2, §3

[7] = tested on: Staphylococcus aureus 1775; conditions: Staphylococcus aureus 1775 (organism code GG); BHI agar, 35-37 °C, 20 to 24 hours; unit assumed
Description: as §1, §2, §3

[8] = tested on: Staphylococcus aureus A-5278; conditions: Staphylococcus aureus A-5278 (organism code CC); BHI agar, 35-37 °C, 20 to 24 hours; unit assumed
Description: as §1, §2, §3

[9] = tested on: Staphylococcus aureus A5177; conditions: Staphylococcus aureus A5177 (organism code BB); BHI agar, 35-37 °C, 20 to 24 hours; unit assumed
Description: as §1, §2, §3

[10] = tested on: Staphylococcus aureus ATCC 6538P; conditions: Staphylococcus aureus ATCC 6538P (organism code AA); BHI agar, 35-37 °C, 20 to 24 hours; unit assumed
Description: as §1, §2, §3

[11] = tested on: Staphylococcus aureus CMX 553; conditions: Staphylococcus aureus CMX 553 (organism code FF); BHI agar, 35-37 °C, 20 to 24 hours; unit assumed
Description: as §1, §2, §3

[12] = tested on: Staphylococcus aureus CMX 642A; conditions: Staphylococcus aureus CMX 642A (organism code DD); BHI agar, 35-37 °C, 20 to 24 hours; unit assumed
Description: as §1, §2, §3

[13] = tested on: Staphylococcus aureus NCTC10649M; conditions: Staphylococcus aureus NCTC10649M (organism code EE); BHI agar, 35-37 °C, 20 to 24 hours; unit assumed
Description: as §1, §2, §3

[14] = tested on: Staphylococcus epidermidis 3519; conditions: Staphylococcus epidermidis 3519 (organism code HH); BHI agar, 35-37 °C, 20 to 24 hours; unit assumed
Description: as §1, §2, §3

[15] = tested on: Streptococcus Pheumoniae 5649; conditions: Streptococcus Pheumoniae 5649 (organism code ZZA); BHI agar, 35-37 °C, 20 to 24 hours; unit assumed
Description: as §1, §2, §3

[16] = tested on: Streptococcus Pheumoniae 5979; conditions: Streptococcus Pheumoniae 5979 (organism code ZZ); BHI agar, 35-37 °C, 20 to 24 hours; unit assumed
Description: as §1, §2, §3

[17] = tested on: Streptococcus Pheumoniae ATCC6303; conditions: Streptococcus Pheumoniae ATCC6303 (organism code XX); BHI agar, 35-37 °C, 20 to 24 hours; unit assumed
Description: as §1, §2, §3

[18] = tested on: Streptococcus Pheumoniae GYR 1171; conditions: Streptococcus Pheumoniae GYR 1171 (organism code YY); BHI agar, 35-37 °C, 20 to 24 hours; unit assumed
Description: as §1, §2, §3

[19] = tested on: Streptococcus agalactiae CMX 508; conditions: Streptococcus agalactiae CMX 508 (organism code KK); BHI agar, 35-37 °C, 20 to 24 hours; unit assumed
Description: as §1, §2, §3

[20] = tested on: Streptococcus bovis A-5169; conditions: Streptococcus bovis A-5169 (organism code JJ); BHI agar, 35-37 °C, 20 to 24 hours; unit assumed
Description: as §1, §2, §3

[21] = tested on: Streptococcus pyogenes 930; conditions: Streptococcus pyogenes 930 (organism code MM); BHI agar, 35-37 °C, 20 to 24 hours; unit assumed
Description: as §1, §2, §3

[22] = tested on: Streptococcus pyogenes EES61; conditions: Streptococcus pyogenes EES61 (organism code LL); BHI agar, 35-37 °C, 20 to 24 hours; unit assumed
Description: as §1, §2, §3

[23] = tested on: Streptococcus pyogenes PIU 2548; conditions: Streptococcus pyogenes PIU 2548 (organism code NN); BHI agar, 35-37 °C, 20 to 24 hours; unit assumed
Description: as §1, §2, §3

SMILES | MIC (Candida albicans CCH 442) | MIC [1] | MIC (Escherichia coli DC-2) | MIC (Escherichia coli JUHL) | MIC (Escherichia coli SS) | MIC [2] | MIC [3] | MIC [4] | MIC [5] | MIC [6] | MIC [7] | MIC [8] | MIC [9] | MIC [10] | MIC [11] | MIC [12] | MIC [13] | MIC [14] | MIC [15] | MIC [16] | other results
C=CCN(C)[C@H]1C[C@@H](C)O[C@@H](O[C@@H]2[C@@H](C)C(=O)[C@@H](C)C(=O)O[C@H](CC)[C@@]3(C)OC(=O)N[C@@H]3[C@@H](C)C(=O)[C@H](C)C[C@@]2(C)OCC=Cc2cnc3ccccc3c2)[C@@H]1O [Example 6, Compound of Formula (II); R is -CH2CH=CH-(3-quinolyl), R^p is H, W is absent, R^w is H, R^1 is CH2CH=CH2, R^2 is CH3] | > 100 µg/mL | 0.05 µg/mL | 100 µg/mL | 50 µg/mL | 0.2 µg/mL | 4 µg/mL | 0.2 µg/mL | 0.02 µg/mL | 0.2 µg/mL | 0.1 µg/mL | > 100 µg/mL | > 100 µg/mL | 0.05 µg/mL | 0.05 µg/mL | 0.05 µg/mL | 0.1 µg/mL | 0.05 µg/mL | 0.2 µg/mL | 0.25 µg/mL | 16 µg/mL | MIC [17]: ≤ 0.004 µg/mL; MIC [18]: ≤ 0.004 µg/mL; MIC [19]: 0.05 µg/mL; MIC [20]: 0.02 µg/mL; MIC [21]: 3.1 µg/mL; MIC [22]: 0.02 µg/mL; MIC [23]: 0.2 µg/mL
CC[C@H]1OC(=O)[C@H](C)C(=O)[C@H](C)[C@@H](O[C@@H]2O[C@H](C)C[C@H](N(C)CCF)[C@H]2O)[C@](C)(OCC=Cc2cnc3ccccc3c2)C[C@@H](C)C(=O)[C@H](C)[C@H]2NC(=O)O[C@@]21C [Example 7, Compound of Formula (II); R is -CH2CH=CH-(3-quinolyl), R^p is H, W is absent, R^w is H, R^1 is CH2CH2F, R^2 is CH3] | > 100 µg/mL | 0.05 µg/mL | > 100 µg/mL | > 100 µg/mL | 0.39 µg/mL | 8 µg/mL | 0.39 µg/mL | 0.05 µg/mL | 1.56 µg/mL | 0.39 µg/mL | > 100 µg/mL | > 100 µg/mL | 0.2 µg/mL | 0.1 µg/mL | 0.05 µg/mL | 0.1 µg/mL | 0.1 µg/mL | 0.2 µg/mL | 0.25 µg/mL | 16 µg/mL | MIC [17]: 0.03 µg/mL; MIC [18]: 0.03 µg/mL; MIC [19]: 0.05 µg/mL; MIC [20]: 0.01 µg/mL; MIC [21]: 12.5 µg/mL; MIC [22]: 0.01 µg/mL; MIC [23]: 0.39 µg/mL
CC[C@H]1OC(=O)[C@H](C)C(=O)[C@H](C)[C@@H](O[C@@H]2O[C@H](C)C[C@H](N(C)Cc3ccccc3)[C@H]2O)[C@](C)(OCC=Cc2cnc3ccccc3c2)C[C@@H](C)C(=O)[C@H](C)[C@H]2NC(=O)O[C@@]21C [Example 8] | > 100 µg/mL | 0.1 µg/mL (≈ 0.119 µM) | > 100 µg/mL | > 100 µg/mL | 0.78 µg/mL (≈ 0.926 µM) | 4 µg/mL (≈ 4.75 µM) | 0.05 µg/mL (≈ 0.0594 µM) | 0.05 µg/mL (≈ 0.0594 µM) | 0.39 µg/mL (≈ 0.463 µM) | 0.2 µg/mL (≈ 0.238 µM) | > 100 µg/mL | > 100 µg/mL | 0.2 µg/mL (≈ 0.238 µM) | 0.2 µg/mL (≈ 0.238 µM) | 0.2 µg/mL (≈ 0.238 µM) | 0.2 µg/mL (≈ 0.238 µM) | 0.2 µg/mL (≈ 0.238 µM) | 0.2 µg/mL (≈ 0.238 µM) | 0.5 µg/mL (≈ 0.594 µM) | > 128 µg/mL | MIC [17]: 0.03 µg/mL (≈ 0.0356 µM); MIC [18]: 0.03 µg/mL (≈ 0.0356 µM); MIC [19]: 0.02 µg/mL (≈ 0.0238 µM); MIC [20]: 0.02 µg/mL (≈ 0.0238 µM); MIC [21]: > 100 µg/mL; MIC [22]: 0.02 µg/mL (≈ 0.0238 µM); MIC [23]: 0.2 µg/mL (≈ 0.238 µM)
CC[C@H]1OC(=O)[C@H](C)C(=O)[C@H](C)[C@@H](O[C@@H]2O[C@H](C)C[C@H](N(C)CC#N)[C@H]2O)[C@](C)(OCC=Cc2cnc3ccccc3c2)C[C@@H](C)C(=O)[C@H](C)[C@H]2NC(=O)O[C@@]21C [Example 9, Compound of Formula (II); R is -CH2CH=CH-(3-quinolyl), R^p is H, W is absent, R^w is H, R^1 is CH2-CN, R^2 is CH3-] | > 100 µg/mL | 0.1 µg/mL | > 100 µg/mL | > 100 µg/mL | 0.2 µg/mL | 8 µg/mL | 0.2 µg/mL | 0.02 µg/mL | 12.5 µg/mL | 0.78 µg/mL | > 100 µg/mL | > 100 µg/mL | 0.1 µg/mL | 0.1 µg/mL | 0.05 µg/mL | 0.1 µg/mL | 0.1 µg/mL | 0.2 µg/mL | 0.5 µg/mL | 128 µg/mL | MIC [17]: 0.03 µg/mL; MIC [18]: 0.03 µg/mL; MIC [19]: 0.01 µg/mL; MIC [20]: 0.01 µg/mL; MIC [21]: 12.5 µg/mL; MIC [22]: 0.01 µg/mL; MIC [23]: 0.39 µg/mL
CC[C@H]1OC(=O)[C@H](C)C(=O)[C@H](C)[C@@H](O[C@@H]2O[C@H](C)C[C@H](N(C)CC3CC3)[C@H]2O)[C@](C)(OCC=Cc2cnc3ccccc3c2)C[C@@H](C)C(=O)[C@H](C)[C@H]2NC(=O)O[C@@]21C [Example 15, Compound of Formula (II); R is -CH2CH=CH-(3-quinolyl), R^p is H, W is absent, R^w is H, R^1 is CH2-(cyclo-C3H5), R^2 is CH3] | > 100 µg/mL | 0.05 µg/mL | > 100 µg/mL | > 100 µg/mL | 0.2 µg/mL | 8 µg/mL | 0.39 µg/mL | 0.05 µg/mL | 0.78 µg/mL | 0.2 µg/mL | > 100 µg/mL | > 100 µg/mL | 0.39 µg/mL | 0.39 µg/mL | 0.39 µg/mL | 0.39 µg/mL | 0.39 µg/mL | 0.39 µg/mL | 0.25 µg/mL | > 128 µg/mL | MIC [17]: 0.03 µg/mL; MIC [18]: 0.03 µg/mL; MIC [19]: 0.05 µg/mL; MIC [20]: 0.02 µg/mL; MIC [21]: 25 µg/mL; MIC [22]: 0.02 µg/mL; MIC [23]: 0.1 µg/mL
